Laboratory results from publication PMC10769034, “Aromatic oil from lavender as an atopic dermatitis suppressant” (PLOS ONE, 2024).
Several values for one entry are separate records, joined by “and”; a condition that tells them apart may be missing. Equal values may be shown once. Read-outs that look alike come from different tables or passages of the source.

Experiments:
AhR [1] = experiment: AhR mRNA level by qPCR in HaCaT cells; assay type: cell-based, human; conditions: FICZ with or without linalyl acetate or linalool, 24 h
AhR [2] = experiment: XRE reporter assay for AD evaluation (AD cell model); conditions: for IC50: Homo sapiens, read-out: IC50 of inhibition of AD (XRE reporter expression); for IC50 / inhibitory effect in the AD cell model, compared in words: 24 h; for inhibitory effect in the AD cell model, compared in words: 0.5 μM FICZ, XRE-NLuc::HaCaT, not as strong as linalyl acetate
[3] = cited from earlier work
ARE-NLuc::HaCaT [4] = experiment: Cell viability (WST-1) in the keratinocyte activation assay; conditions: 48 h, mean ± SD of three experiments
ARE-NLuc::HaCaT [5] = experiment: Keratinocyte activation assay (ARE reporter assay, OECD TG442D); conditions: 48 h; positive criteria of TG442D
Artemin = experiment: FICZ-induced Artemin mRNA expression by qPCR in HaCaT cells; assay type: cell-based; conditions: Homo sapiens, 24 h, read-out: IC50 of decrease of FICZ-induced Artemin expression
CD86 on U937 cells [6] = tested on: CD86 on U937 cells; parameters: method as in PMID 23576290; conditions: cited from earlier work
ARE-NLuc::HaCaT [7] = tested on: ARE-NLuc::HaCaT
ARE-NLuc::HaCaT [8] = tested on: ARE-NLuc::HaCaT; remark: listed apart in the source
AhR [9] = experiment: AhR protein level by western blotting in HaCaT cells; assay type: cell-based, human; conditions: FICZ and linalyl acetate, 24 h
Experimental: Sodium dodecyl sulfate–polyacrylamide gel electrophoresis (SDS–PAGE) and western blotting were performed as described previously. Cell lysates were prepared in lysis buffer [10 mM HEPES-KOH, pH 7.4, 100 mM KCl, 1 mM MgCl2, 1% Triton X-100, and protease inhibitor cocktails (Nacalai)]. After incubation for 10 min on ice, the lysate was clarified by centrifugation at 14,000 × g for 10 min. The supernatants were then subjected to SDS–PAGE on a 7.5% gel (Bio-Rad). The gel was electrotransferred to polyvinylidene fluoride or polyvinylidene difluoride membranes (pore size: 0.45 μm, Merck Group Japan, Tokyo, Japan). The proteins on the membrane were detected by incubation with diluted anti-AhR, anti-ARNT (Santa Cruz Biotechnology, Cosmo Bio Co., LTD, Tokyo, Japan), and anti-γ-tubulin (Sigma, Sigma-Aldrich Japan, Tokyo, Japan) followed by HRP-conjugated anti-mouse immunoglobulin G (Cell Signaling, CST Japan, Tokyo, Japan) using a charge-coupled device camera.
Next, we measured the mRNA and protein expression of AhR and ARNT by qPCR and western blotting, respectively.
Total RNA was then extracted and reverse transcribed to cDNA that was subjected to qPCR using the primer set listed in S2 Table in S1 File. […] Fold induction was calculated as the vehicle set at 1. […] The right-side numbers are experimental numbers. d) Band intensity of each lane was quantified by ImageJ and normalized to […]. […]

HaCaT cells = experiment: RNAseq on treated HaCaT cells analysed by DisGeNET-Metascape; assay type: cell-based, human; conditions: authors' reply to reviewer, data not shown
Source text: Thank you for your comment. […] To clarify that our conclusion is limited, we have added some words in the revised Discussion section.

CD86 on U937 cells [10] = conditions: for CD86+ FL1 positivity (%): 200 µg/mL, control printed for each of three test series
U937 cells [11] = conditions: human
[12] = cited from earlier work; remark: listed apart in the source
ARNT [13] = experiment: ARNT protein level by western blotting in HaCaT cells; assay type: cell-based, human; conditions: FICZ alone, 24 h
Source text: All the Western blots are shown from two (anti-ARNT) or three (anti-AhR and anti-gamma tubulin) independent experiments. […] The intensities are relative to the vehicle set at 1.

ARNT [14] = experiment: ARNT mRNA level by qPCR in HaCaT cells; assay type: cell-based, human; conditions: FICZ with or without linalyl acetate or linalool, 24 h
Source text: Briefly, the total RNA was extracted, and reverse transcribed using SuperPrep II Cell Lysis & RT Kit for qPCR (#SCQ-401, Toyobo, Tokyo, Japan), according to the manufacturer’s instructions. The cDNA obtained was subjected to a quantitative polymerase chain reaction (qPCR) with THUNDERBIRD Next SYBR qPCR Mix (#QPX-201, Toyobo) according to the manufacturer’s protocol using the StepOne Real-Time PCR System (Thermo Fisher Japan, Tokyo, Japan). The expression of each gene obtained using qPCR was normalized to that of glyceraldehyde-3-phosphate dehydrogenase (GAPDH). […] The cycle threshold (Ct) value of GAPDH in each sample was used as an internal control.
Total RNA was then extracted and reverse transcribed to cDNA that was subjected to qPCR using the primer set listed in S2 Table in S1 File. AhR and ARNT expression was normalized to GAPDH expression. Fold induction was calculated as the vehicle set at 1. Values in the graphs represent the mean ± SD of two independent experiments. […] All the Western blots are shown from two (anti-ARNT) or three (anti-AhR and anti-gamma tubulin) independent experiments. […] The intensities are relative to the vehicle set at 1.

U937 cells [15] = experiment: Cell viability (PI staining) in the dendritic cell activation assay; conditions: 200 µg/mL, control printed for each of three test series
[16] = as above; conditions: human, U937 cells, %Viability, control printed for each of three test series

C=CC(C)(O)CCC=C(C)C (centres unmarked) [Linalool]
AhR mRNA level (AhR [1]): did not change | IC50 (AhR [2]): > 1000 µM | Patch test (human) [3]: 0.2% positive ^##, ^### | CV70 (ARE-NLuc::HaCaT [4]): >2000 µM | outcome of the keratinocyte activation assay (ARE-NLuc::HaCaT [5]): negative | IC50 (Artemin; 5 μM FICZ, qPCR normalized to GAPDH): 194 µM | outcome of the dendritic cell activation assay (CD86 on U937 cells [6]): positive

C=CC(C)(O)CCCC(C)C (centres unmarked) [DHL, 6,7-Dihydrolinalool]
CV70 (ARE-NLuc::HaCaT [7]): 1319 ± 52.3 µM | inhibitory effect in the AD cell model, compared in words (AhR [2]): stronger inhibitory effects than linalool | outcome of the keratinocyte activation assay (ARE-NLuc::HaCaT [8]): weakly positive

C=CC(C)(CCC=C(C)C)OC(C)=O (centres unmarked) [Linalyl acetate]
reduction of AhR protein level compared with FICZ alone (AhR [9]): approximately 30% | AhR mRNA level (AhR [1]): did not change | IC50 (AhR [2]): 519 µM | XRE reporter expression (AhR [2]; without activation of AhR by FICZ): decreased XRE reporter expression | evidence of contact allergy in RNAseq (HaCaT cells): no evidence of contact allergy | S.I. value of CD86 (CD86 on U937 cells [10]): less than 150 | outcome of the dendritic cell activation assay (CD86 on U937 cells [10]): negative | patch test [3]: negativity | CV70 (U937 cells [11]): 16 ± 3.8 µg/mL | CV70 (ARE-NLuc::HaCaT [4]): 1466 ± 45.4 µM | outcome of the keratinocyte activation assay (ARE-NLuc::HaCaT [5]): weakly positive | IC50 (Artemin): 3.6 µM | Key event 4, Local lymph node assay [12]: weak positivity

O=Cc1c2[nH]c3ccccc3c2cc2[nH]c3ccccc3c12 [FICZ, 6-formylindolo[3,2-b]carbazole]
AhR mRNA level (AhR [1]): did not change | ARNT protein level (ARNT [13]): increased | ARNT mRNA level (ARNT [14]): did not change

CCC(C)(O)CCCC(C)C (centres unmarked) [THL, tetrahydrolinalool]
CV70 (ARE-NLuc::HaCaT [7]): 1416 ± 90.6 µM | inhibitory effect in the AD cell model, compared in words (AhR [2]): stronger inhibitory effects than linalool | outcome of the keratinocyte activation assay (ARE-NLuc::HaCaT [8]): weakly positive

CC(O)C(=O)O (centres unmarked) [lactic acid]
CD86+ FL1 positivity (%) (CD86 on U937 cells [10]; Experiment 1, 48 h): 11.5% and 10.1% | CD86+ FL1 positivity (%) (CD86 on U937 cells [10]; Experiment 2, 48 h): 8.4% and 12.6% and 11.7% | %Viability (U937 cells [15]; Experiment 1, 48 h): 96.2% | %Viability (U937 cells [15]; Experiment 2, 48 h): 95.4% and 94.4% | viability at 48 h, 200 µg/mL ([16]; Experiment 1, 48 h): 97.4% | viability at 48 h, 200 µg/mL ([16]; Experiment 2, 48 h): 96.4%

C=C(C)C(=O)OCCOC(=O)C(=C)C [Ethylene glycol dimethacrylate, ethylene glycol dimethacrylate, reference compound]
CV70 (ARE-NLuc::HaCaT [4]): 523 ± 59.0 µM | CV70 (ARE-NLuc::HaCaT [4]; listed as EGDMA): 523 ± 59.0 µM | outcome of the keratinocyte activation assay (ARE-NLuc::HaCaT [5]): positive
